Data taken from PMC8304608, “Impact of Membrane Lipids on UapA and AzgA Transporter Subcellular Localization and Activity in Aspergillus nidulans” (Journal of Fungi, 2021).

Columns and labels:
UapA = molecular target: T1, UapA (Aspergillus nidulans, UniProt Q07307); assay: radiolabelled uptake in germinating conidiospores; format: cell-based; conditions: apparent Km; wild-type lipid background; [8-3H]-xanthine 0.1 μM with unlabelled substrate 0.5-1000 μM; pH 6.8, 37 °C; labelled compound; background of strain lacking transporter subtracted; read-out: Xanthine Uptake Kinetics / Km
T1 construct: full-length in native germinating conidiospores; GFP-tagged UapA under native promoter used for localization (functionally replaces untagged); homodimer
T1 sequence (Q07307 whole entry): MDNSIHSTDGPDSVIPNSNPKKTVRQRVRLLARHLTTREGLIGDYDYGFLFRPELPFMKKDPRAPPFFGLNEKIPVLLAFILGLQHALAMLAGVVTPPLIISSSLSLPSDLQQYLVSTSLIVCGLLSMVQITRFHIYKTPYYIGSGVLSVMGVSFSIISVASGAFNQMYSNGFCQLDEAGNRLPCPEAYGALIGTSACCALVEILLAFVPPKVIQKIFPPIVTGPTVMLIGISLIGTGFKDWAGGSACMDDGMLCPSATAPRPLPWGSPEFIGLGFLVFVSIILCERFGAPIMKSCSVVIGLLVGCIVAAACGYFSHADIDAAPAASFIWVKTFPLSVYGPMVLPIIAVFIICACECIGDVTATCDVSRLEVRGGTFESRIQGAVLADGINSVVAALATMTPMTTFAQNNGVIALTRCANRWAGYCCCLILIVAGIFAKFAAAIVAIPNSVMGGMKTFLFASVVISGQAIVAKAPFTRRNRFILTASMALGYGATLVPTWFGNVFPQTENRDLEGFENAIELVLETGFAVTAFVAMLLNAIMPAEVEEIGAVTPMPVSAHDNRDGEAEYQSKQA
Text: radiolabelled uptake in germinating conidiospores on UapA

[1] = substrate: Nc1ncnc2nc[nH]c12; assay: radiolabelled uptake in germinating conidiospores; format: cell-based, Aspergillus nidulans; conditions: apparent Km, wild-type lipid background, [2,8-3H]-adenine 0.1 μM with unlabelled substrate 0.5-1000 μM, pH 6.8, 37 °C, labelled compound, background of strain lacking transporter subtracted
Text: radiolabelled uptake in germinating conidiospores on AzgA

Molecule | Km (UapA) [µM] | Km [1] [µM]
O=c1[nH]c(=O)c2[nH]cnc2[nH]1 [xanthine] | 5 ± 1 | –
AzgA (Aspergillus nidulans) (protein, full-length in native germinating conidiospores; GFP-tagged AzgA under native promoter used for localization (functionally replaces untagged)) MGYAEWIGRTNAAVARSPVGRWFRLEGSGHPRERKGAYFFTELRAGLATFFAMAYIISVNANITSDTGGTCVCPAEDLATACDNNTEYLLCKQEVNRDLVTATAAIAAIASFFLGLLANLPVALAPGMGLNAYFAYTVVGHHGTGLIPYSLAVTAVFVEGWIFLGLTLLGIRQWLARAIPASIKLATGAGIGLYLTLIGLSYSAGLGVVQGGTSSPIQLAGCASDTFGDDGLCPSSEKMRNPTMWIGIFCGGVFTVFLMMYRVKGAVIAGILLVSIISWPRPTPVTYFPHTETGDSSFDFFKKVVTFHPIQHTLVAQEWNISSNGGQFGLALITFLYVDILDATGTLYSMAKFAGAMDERTQDFEGSAMAYMVDAICISIGSLFGSPPVTAFVESGAGISEGGKTGLTSCMTGICFFIAVFFAPIFASIPPWATGSTLVIVGSMMMHATLEINWRYLGDAVPAFLTISLMPFTYSIADGLIAGILSYILINGGVWIVAKLTGGRISPPNREEEHEPWTWKIPGGFFPPWLVRAVHGKKDFWRAEDDANDLSLGVMPHGSLSSQDRAGEKLASSKEQVTEK | – | 3 ± 1
